# Read-outs that look alike come from different tables or passages of the source.
# Legend:
# [1] = log P by reversed-phase HPLC (EEC Directive 79/831 Annex V.A8); assay type: physicochemical; details: for chromatographic logP: reversed-phase C18 HPLC column; for logP [b] = log P (neutral): pH 7.8
# Excerpt: NMR data and log P values: log P (HCOOH)=log P[a] log P (neutral)=log P[b]
# ^[a] […] Called log P (HCOOH) in the table.
# ^[b] […] Called log P (neutral) in the table.
# [2] = test system: Tetranychus urticae; assay: Tetranychus urticae spray test, OP-resistant (TETRUR); assay type: in vivo; details: 500 g/ha, bean leaf discs, after 6 days
# Description: Tetranychus urticae—spray test, OP-resistant (TETRUR)
# • Solvent: 78.0 parts by weight of acetone • 1.5 parts by weight of dimethylformamide • Emulsifier: 0.5 part by weight of alkylaryl polyglycol ether
# After 6 days, the efficacy in % is determined. 100% means that all the spider mites have been killed; 0% means that no spider mites have been killed.
# [3] = test system: Myzus persicae; assay: Myzus persicae spray test (MYZUPE); assay type: in vivo; details: Chinese cabbage leaf discs, after 6 days
# Description: Myzus persicae—spray test (MYZUPE)
# • Solvent: 78 parts by weight of acetone • 1.5 parts by weight of dimethylformamide • Emulsifier: 0.5 part by weight of alkylaryl polyglycol ether
# After 6 days, the efficacy in % is determined. 100% means that all the aphids have been killed; 0% means that no aphids have been killed.
# [4] = test system: Aphis gossypii; assay: Aphis gossypii spray test; assay type: in vivo; details: 20 ppm, cotton plants, after 6 days
# Description: Aphis gossypii—spray test
# • Solvent: 7 parts by weight of dimethylformamide • Emulsifier: alkylaryl polyglycol ether
# To produce further test concentrations, the preparation is diluted with emulsifier-containing water. If the addition of ammonium salts or/and penetrants is required, these are each added in a concentration of 1000 ppm to the formulation solution.
# After 6 days, the kill in % is determined. 100% means that all the aphids have been killed; 0% means that no aphids have been killed.
# [5] = acidic range, pH 2.7, 0.1% aqueous formic acid/acetonitrile, read-out: logP [a] = log P (HCOOH)
# [6] = acidic range, pH 2.7, 0.1% aqueous formic acid/acetonitrile
smiles,measurement,setting,value
"O=c1[nH]c2cc3c(cc2nc1-c1ccc(Cl)cc1)OC(F)(F)O3 [VIb-01, 7-(4-chlorophenyl)-2,2-difluoro [1,3]dioxolo [4,5-g]quinoxalin-6(5H)-one]",chromatographic logP,[1]; [5],2.96
Cc1cnccc1-c1nc2cc(C(F)(F)F)ccc2nc1Cl [Example I-38],logP [a] = log P (HCOOH),[1]; pH 2.7,2.88
Cc1cnccc1-c1cnc2cc(Cl)c(Cl)cc2n1 [Example I-41],logP [a] = log P (HCOOH),[1]; pH 2.7,2.51
same,logP [b] = log P (neutral),[1],3.29
Cc1cnccc1-c1nc2ccc(C(F)(F)F)cc2nc1Cl [Example I-37],logP [a] = log P (HCOOH),[1]; pH 2.7,2.94
Clc1ccc2nc(-c3ccncc3Cl)cnc2c1 [Example I-39],logP [a] = log P (HCOOH),[1]; pH 2.7,2.99
Cc1ccsc1-c1cnc2cc(C(F)(F)F)ccc2n1 [Example I-48],logP [a] = log P (HCOOH),[1]; pH 2.7,4.67
same,efficacy (spider mites killed),[2],90%
Cc1cnccc1-c1nc2cc3c(cc2nc1C)OC(F)(F)O3 [Example I-67],logP [a] = log P (HCOOH),[1]; pH 2.7,2.02
FC(F)(F)c1ccccc1-c1cnc2cc(Cl)ccc2n1 [Example I-21],logP [a] = log P (HCOOH),[1]; pH 2.7,4.17
same,efficacy (spider mites killed),[2],100%
FC(F)(F)c1ccc2nc(Cl)c(-c3ccc(Cl)cc3)nc2c1 [Example I-53],logP [a] = log P (HCOOH),[1]; [6],5.31
Cc1cnccc1-c1nc2cc(F)c(F)cc2nc1C [Example I-65],logP [a] = log P (HCOOH),[1]; pH 2.7,1.58
Clc1ccc2nc(-c3ccnc(Cl)c3)cnc2c1 [Example I-69],logP [a] = log P (HCOOH),[1]; [6],3.52
Cc1c[n+]([O-])ccc1-c1c[n+]([O-])c2cc(C(F)(F)F)ccc2n1 [Example I-55],logP [a] = log P (HCOOH),[1]; [6],1.59
CCSc1ccccc1-c1cnc2cc(Cl)c(Cl)cc2n1 [Example I-42],logP [a] = log P (HCOOH),[1]; pH 2.7,5.38
same,logP [b] = log P (neutral),[1],5.48
CCc1cnccc1-c1cnc2ccc(C(F)(F)F)cc2n1 [Example I-27],efficacy (spider mites killed),[2],90%
Cc1nc2cc(C(F)(F)F)ccc2nc1-c1cccnc1 [Example I-60],logP [a] = log P (HCOOH),[1]; [6],2.39
FC(F)(F)c1ccc2nc(-c3ccncc3Cl)cnc2c1 [Example I-10],efficacy (aphids killed),[3]; 100 g/ha,100%
same,logP [a] = log P (HCOOH),[1]; pH 2.7,3.27
same,efficacy (kill of aphids),[4],85%
Cc1cnccc1-c1nc2ccc(C(F)(F)F)cc2nc1-c1ccc(Cl)cc1 [Example I-64],logP [a] = log P (HCOOH),[1]; [6],4.03
CSc1ccccc1-c1cnc2cc(C(F)(F)F)ccc2n1 [Example I-16],logP [a] = log P (HCOOH),[1]; pH 2.7,4.45
same,logP [b] = log P (neutral),[1],4.31
"O=c1cnc2ccc(C(F)(F)F)cc2[nH]1 [VIa-02, 7-(trifluoromethyl)quinoxalin-2(1H)-one]",chromatographic logP,"[1]; neutral range, pH 7.8, aqueous ammonium hydrogencarbonate/acetonitrile, read-out: logP [b] = log P (neutral)",1.65
FC1(F)Oc2cc3ncc(-c4ccncc4Cl)nc3cc2O1 [Example I-72],logP [a] = log P (HCOOH),[1]; pH 2.7,3.24
CS(=O)(=O)c1ccccc1-c1cnc2cc(Cl)ccc2n1 [Example I-28],logP [a] = log P (HCOOH),[1]; pH 2.7,2.52
same,logP [b] = log P (neutral),[1],2.52
Cc1cnccc1-c1cnc2cc(C#N)ccc2n1 [Example I-56],logP [a] = log P (HCOOH),[1]; pH 2.7,1.17
same,logP [b] = log P (neutral),[1],1.81
Cc1cnccc1-c1cnc2cc(F)c(F)cc2n1 [Example I-63],efficacy (aphids killed),[3]; 500 g/ha,90%
same,logP [a] = log P (HCOOH),[1]; pH 2.7,1.55
Clc1ccc2nc(-c3cncnc3)cnc2c1 [Example I-19],logP [a] = log P (HCOOH),[1]; pH 2.7,2.01
Cc1cscc1-c1cnc2cc(C(F)(F)F)ccc2n1 [Example I-45],logP [a] = log P (HCOOH),[1]; pH 2.7,4.57
Clc1cc2ncc(-c3ccncc3)nc2cc1Cl [Example I-73],logP [a] = log P (HCOOH),[1]; [6],2.53
CCSc1ccccc1-c1nc2cc3c(cc2nc1-c1ccc(Cl)cc1)OC(F)(F)O3 [Example I-59],logP [a] = log P (HCOOH),[1]; [6],6.23
Cc1cnccc1-c1nc2cc(C(F)(F)F)ccc2nc1-c1ccc(Cl)cc1 [Example I-68],logP [a] = log P (HCOOH),[1]; [6],3.94
"FC1(F)Oc2cc3ncc(-c4ccc(C(F)(F)F)cc4)nc3cc2O1 [Example I-5, 2,2-Difluoro-6-[4-(trifluoromethyl)phenyl][1,3]dioxolo [4,5-g]quinoxaline]",chromatographic logP,[1]; [5],5.02

# From patent publication US9936700B2, “Substituted quinoxaline derivatives as pest control agent” (BAYER CROPSCIENCE AKTIENGESELLSCHAFT, priority 2013, dated 2018)
